What all share (type): cell-based
In test [1] the target is T1, human glucagon receptor (GCGR) (Homo sapiens, UniProt P47871).
T1 construct: expressed in transfected cells
Briefly: cAMP assay, human GCGR cells. The settings on record: cAMP assay. The method in brief:
(§1)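 Peptide-stimulated cAMP measured by two-step HTRF after a 30 min room-temperature incubation with receptor-expressing cells (hGLP-1R, hGIPR at 1×10^5 cells/ml; hGCGR at 2×10^5 cells/ml). Duplicate dilutions; EC50 from 4-parameter logistic fit of % Delta F.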
On the technique in general: Cyclic AMP is a second messenger, typically raised through Gs and lowered through Gi signalling.

For test [2], the target named is T2, human glucose-dependent insulinotropic peptide receptor (GIPR) (Homo sapiens, UniProt P48546).
T2 construct: expressed in transfected cells
T2 sequence (P48546 22-466): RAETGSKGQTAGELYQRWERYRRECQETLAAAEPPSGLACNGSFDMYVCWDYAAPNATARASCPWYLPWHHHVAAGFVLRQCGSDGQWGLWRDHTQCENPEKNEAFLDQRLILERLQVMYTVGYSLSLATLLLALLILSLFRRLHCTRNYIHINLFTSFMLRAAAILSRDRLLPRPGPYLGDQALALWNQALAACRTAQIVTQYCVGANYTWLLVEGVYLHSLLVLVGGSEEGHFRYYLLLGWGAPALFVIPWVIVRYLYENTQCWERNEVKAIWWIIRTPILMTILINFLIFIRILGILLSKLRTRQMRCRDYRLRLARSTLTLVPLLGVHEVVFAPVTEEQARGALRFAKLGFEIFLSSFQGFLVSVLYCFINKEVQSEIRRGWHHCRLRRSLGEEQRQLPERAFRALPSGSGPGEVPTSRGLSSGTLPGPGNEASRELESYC
Briefly: cAMP assay, human GIPR cells. The settings on record: cAMP assay. The method in brief:
as §1

Test [3] has as its target T3, human GLP-1 receptor (GLP-1R) (Homo sapiens, UniProt P43220).
T3 construct: expressed in transfected cells
Briefly: cAMP assay, human GLP-1R cells. The method in brief:
as §1

For another test, the target named is T4, GLP-1R (INS1e assay) (Rattus norvegicus, UniProt P32301).
T4 construct: endogenous in cells; host or cells: INS-1E cells
T4 sequence (P32301 22-463): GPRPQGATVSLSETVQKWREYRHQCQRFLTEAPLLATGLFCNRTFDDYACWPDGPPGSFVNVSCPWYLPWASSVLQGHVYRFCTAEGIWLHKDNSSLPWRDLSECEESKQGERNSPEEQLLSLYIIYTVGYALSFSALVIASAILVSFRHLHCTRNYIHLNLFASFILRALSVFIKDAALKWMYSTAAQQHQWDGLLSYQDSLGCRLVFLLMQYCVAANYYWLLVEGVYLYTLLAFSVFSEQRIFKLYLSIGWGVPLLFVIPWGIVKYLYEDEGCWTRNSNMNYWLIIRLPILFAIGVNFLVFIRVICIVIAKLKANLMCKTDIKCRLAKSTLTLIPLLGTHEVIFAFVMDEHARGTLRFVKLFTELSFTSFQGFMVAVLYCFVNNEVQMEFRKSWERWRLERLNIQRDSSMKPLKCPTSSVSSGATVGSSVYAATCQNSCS
Briefly: INS1e assay, cAMP activity at GLP-1R. The settings on record: mono-lipidated peptides. The method in brief:
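It pairs cAMP-d2 acceptor with anti-cAMP cryptate donor, both prepared 1/20 in conjugate/lysis buffer, applied as a two-step protocol.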

Setting [4] is: first determination (n1), read-out: Primary assay EC50 Gluc-R (n1).
Setting [5] is: second determination (n2), read-out: Primary assay EC50 Gluc-R (n2).
The mark [6] stands for this setting: first determination (n1), read-out: Primary assay EC50 GIP-R (n1).
Setting [7] is: second determination (n2), read-out: Primary assay EC50 GIP-R (n2).
Setting [8] is: cAMP assay, first determination (n1), read-out: Primary assay EC50 GLP-1R n1.
Setting [9] is: cAMP assay, second determination (n2), read-out: Primary assay EC50 GLP-1R n2.
Setting [10] is: mean of n1 and n2, read-out: Mean pM GLP-1R.
Setting [11] is: mean of n1 and n2, read-out: INS1e assay EC50 Mean pM GLP-1R.
The mark [12] stands for this setting: replicate n1, read-out: INS1e assay EC50 GLP-1R n1.
[13] abbreviates: replicate n2, read-out: INS1e assay EC50 GLP-1R n2.

Read-outs that look alike come from different tables or passages of the source. Square brackets hold non-standard residues; d marks the D form. Side chains are listed from the residue outwards. Peptide text beside a SMILES is read from it. * marks the point of attachment. Stearoyl = CCCCCCCCCCCCCCCCCC(=O)*; αMeF = C[C@](N)(Cc1ccccc1)C(=O)O; αMeK = C[C@](N)(CCCCN)C(=O)O; αMeS = C[C@](N)(CO)C(=O)O; AEEA = NCCOCCOCC(=O)O; Aib = CC(C)(N)C(=O)O

T3 sequence (P43220 24-463): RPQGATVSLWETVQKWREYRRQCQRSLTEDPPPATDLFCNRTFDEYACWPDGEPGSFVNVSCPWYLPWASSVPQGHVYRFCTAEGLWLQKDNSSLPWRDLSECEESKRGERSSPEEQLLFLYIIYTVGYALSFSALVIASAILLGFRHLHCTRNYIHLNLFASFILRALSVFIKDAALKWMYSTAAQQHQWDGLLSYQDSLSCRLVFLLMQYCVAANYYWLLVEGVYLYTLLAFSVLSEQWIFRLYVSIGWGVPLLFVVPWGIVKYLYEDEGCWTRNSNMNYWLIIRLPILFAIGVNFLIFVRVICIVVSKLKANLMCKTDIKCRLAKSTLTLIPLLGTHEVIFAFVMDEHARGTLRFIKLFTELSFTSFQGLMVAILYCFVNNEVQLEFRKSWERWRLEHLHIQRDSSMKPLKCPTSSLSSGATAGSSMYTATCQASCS
T1 sequence (P47871 26-477): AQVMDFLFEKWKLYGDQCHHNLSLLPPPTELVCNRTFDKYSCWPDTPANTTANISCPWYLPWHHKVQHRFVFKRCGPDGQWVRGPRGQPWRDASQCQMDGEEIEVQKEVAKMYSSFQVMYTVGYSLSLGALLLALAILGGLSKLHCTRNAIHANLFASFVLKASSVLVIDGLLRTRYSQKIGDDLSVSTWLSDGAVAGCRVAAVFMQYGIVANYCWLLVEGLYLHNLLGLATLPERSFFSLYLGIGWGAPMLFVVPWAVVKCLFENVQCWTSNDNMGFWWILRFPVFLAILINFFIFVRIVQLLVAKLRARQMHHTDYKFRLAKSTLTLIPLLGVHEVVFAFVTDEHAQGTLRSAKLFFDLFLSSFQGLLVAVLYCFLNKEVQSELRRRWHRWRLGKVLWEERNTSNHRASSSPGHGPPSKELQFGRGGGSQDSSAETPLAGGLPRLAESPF

With `CCCCCCCCCCCC(=O)NCCOCCOCC(=O)NCCOCCOCC(=O)NCCCC[C@H](NC(=O)[C@@H](NC(=O)[C@@H](NC(=O)[C@](C)(Cc1ccccc1)NC(=O)[C@H](C)NC(=O)[C@@H](NC(=O)[C@](C)(Cc1ccccc1)NC(=O)[C@H](CCC(=O)O)NC(=O)[C@](C)(CCCCN)NC(=O)[C@H](C)NC(=O)[C@H](C)NC(=O)[C@H](CCC(=O)O)NC(=O)CNC(=O)[C@H](CCC(=O)O)NC(=O)[C@H](CC(C)C)NC(=O)[C@](C)(Cc1ccccc1)NC(=O)[C@H](CO)NC(=O)[C@](C)(CO)NC(=O)[C@@H](NC(=O)[C@H](CC(=O)O)NC(=O)[C@H](CO)NC(=O)[C@@H](NC(=O)[C@](C)(Cc1ccccc1)NC(=O)[C@H](CO)NC(=O)CNC(=O)[C@H](CCC(=O)O)NC(=O)C(C)(C)NC(=O)[C@@H](N)Cc1c[nH]cn1)[C@@H](C)O)C(C)C)[C@@H](C)CC)C(C)C)C(C)C)C(=O)NCC(=O)NCC(N)=O` [compound 171], the EC50 was at least 27 nM in test [1] (setting [4]); at least 27 nM in test [1] (setting [5]); at least 27 nM in test [2] (setting [6]); at least 27 nM in test [2] (setting [7]); 2.5 pM in test [3] (setting [8]); 1.2 pM in test [3] (setting [9]). The EC50 turned out to be 1.9 pM in test [3] (setting [10]), 128 pM at GLP-1R (INS1e assay) (setting [11]), 81.7 pM on GLP-1R (INS1e assay) (setting [12]) and 175 pM on GLP-1R (INS1e assay) (setting [13]).

Regarding `CCCCCCCCCCCCCCCCCC(=O)NCCOCCOCC(=O)NCCOCCOCC(=O)NCCOCCOCC(=O)NCCCC[C@H](NC(=O)[C@H](C)NC(=O)[C@H](C)NC(=O)[C@H](CCC(=O)O)NC(=O)CNC(=O)[C@H](CCC(=O)O)NC(=O)[C@H](CC(C)C)NC(=O)[C@](C)(Cc1ccccc1)NC(=O)[C@H](CO)NC(=O)[C@](C)(CO)NC(=O)[C@@H](NC(=O)[C@H](CC(=O)O)NC(=O)[C@H](CO)NC(=O)[C@@H](NC(=O)[C@](C)(Cc1ccccc1)NC(=O)[C@H](CO)NC(=O)CNC(=O)[C@H](CCC(=O)O)NC(=O)C(C)(C)NC(=O)[C@@H](N)Cc1c[nH]cn1)[C@@H](C)O)C(C)C)C(=O)N[C@@H](CCC(=O)O)C(=O)N[C@@](C)(Cc1ccccc1)C(=O)N[C@H](C(=O)N[C@@H](C)C(=O)N[C@@H](Cc1c[nH]c2ccccc12)C(=O)N[C@H](C(=O)N[C@H](C(=O)N[C@@](C)(CCCCN)C(=O)NCC(=O)NCC(N)=O)C(C)C)C(C)C)[C@@H](C)CC` [compound 55] (H-H[Aib]EGS[αMeF]TSDV[αMeS]S[αMeF]LEGEAAK([AEEA-AEEA-AEEA-Stearoyl])E[αMeF]IAWVV[αMeK]GG-NH2), the EC50 is at least 25 nM in test [1] (setting [4]); at least 25 nM in test [1] (setting [5]); at least 25 nM in test [2] (setting [6]); at least 25 nM in test [2] (setting [7]); 1.4 pM in test [3] (setting [8]); 2.3 pM in test [3] (setting [9]). The EC50 in test [3] (setting [10]) was found to be 1.8 pM; at GLP-1R (INS1e assay) (setting [11]) it was 11 pM; at GLP-1R (INS1e assay) (setting [12]), 12.5 pM; on GLP-1R (INS1e assay) (setting [13]) it was 10.1 pM.

The values above are taken from US10414811B2, “Protease-resistant lipidated GLP-1 analogs” (MEDIMMUNE LIMITED, priority 2015, dated 2019).
